Measured values: patent US20090082402A1, “Methods of treating genitourinary disorders using inhibitors of soluble epoxide hydrolase” (Roche Palo Alto LLC, priority 2006, published 2009)

What follows are compounds tested on bladder smooth muscle (assay: Contraction studies on isolated rat bladder strips with electrical field stimulation). Details: isolated bladder tissue.
Assay type: cell-based, Sprague-Dawley rat
Description: Bladder strips from (male/female) Sprague-Dawley (Charles River) rat bladders were mounted in 10 ml tissue baths maintained at 37 C, containing 10 ml of a saline solution consisting of: NaCl (118.5 mM), KCl (4.8 mM), NaHCO3 (25 mM), KH2PO4 (1.2 mM), MgSO4 (1.2 mM), CaCl2 (2.5 mM), and glucose (11.0 mM). The bladder strips were aerated with a mixture of 95% O2 and 5% CO2. The tissues were initially equilibrated for one h with 1 g. resting weight. The control response to 67 mM KCl was then determined. Electrical field stimulation (EFS) was provided through platinum electrodes of 1.14 cm^2 surface area located one cm apart on either side of the tissue. Stimulation to the platinum electrodes was provided by a GRASS Medical Instruments (Quincy, Mass.) S88 Square Pulse Stimulator set to deliver 10 V pulses with a 0.5 ms pulse duration in a pulse train of 10 seconds at either 1, 2, 4, or 8 Hz.

Row | Compound | effect on bladder smooth muscle stimulated by low frequency electric fields (relaxation)
1 | CCCCC/C=C\C/C=C\CC1OC1C/C=C\CCCC(=O)O (stereo not shown) [8,9-EET, 8,9-epoxyeicosatrienoic acid] | no effects
2 | CCCCC/C=C\CC1OC1C/C=C\C/C=C\CCCC(=O)O (stereo not shown) [11,12-EET, 11,12-epoxyeicosatrienoic acid] | no effects
3 | CCCCCC(O)C(O)CC=CCC=CCC=CCCCC(=O)O (stereo not shown) [14,15-DHET, 14,15-dihydroxyeicosatrienoic acid] | no effects
4 | CCCCCC1OC1CC=CCC=CCC=CCCCC(=O)O (stereo not shown) [14,15-EET, 14,15-epoxyeicosatrienoic acid] | relaxes bladder smooth muscle
